Assay results reported in patent US4910194A, “Thienotriazolodiazepine compounds and pharmaceutical uses thereof” (Yoshitomi Pharmaceutical Industries, Ltd., priority 1988, dated 1990).
In brackets after ≈: the same amount, converted by molar mass.

Tests used:
PAF = details: literature; cited from earlier work
[1] = tested on: PAF-induced platelet aggregation; experiment: Inhibitory effect on platelet aggregation in rabbits (in vitro test); type: cell-based; details: Oryctolagus cuniculus, rabbit PRP, PAF 1.8×10^-7 M, 37° C., read-out: Inhibition of PAF-induced platelet aggregation, IC50
Method: Blood samples to which was added 0.1 volume of 3.8% sodium citrate were collected from rabbits. Platelet rich plasma (PRP) was prepared by centrifuging the blood sample at 200×g for 10 minutes, and platelet poor plasma (PPP) was prepared by centrifuging the remaining blood sample at 1000×g for 10 minutes.
Aggregation ability was measured with a turbidimetric device (6-channel NKK Hematracer 1, model PAT-6A) according to the method of G. V. R. Born described in J. Physiology, vol. 168, p. 178 (1963). The aggregometer was adjusted in sensitivity to give light transmission values of 0 and 100% for PRP and PPP, respectively. With stirring at 1000 rpm, 0.3 μl of test compound solution or vehicle was added to 0.3 ml of PRP. After the mixture was kept at 37° C. for 2 minutes, to the mixture was added 3 μl PAF (Serdary Research Lab.) at the final concentration of 1.8×10^-7 M and the light transmission was recorded for 5 minutes.
In all experiments, PAF was dissolved in ethanol at the concentration of 100 μg/ml, and, when used, diluted with 0.9% saline solution.
The inhibition percentage of test compounds on platelet aggregation were calculated from the following formula by measuring the maximal light transmission in the presence and absence of the test compounds. [formula]
IC50 (μg/ml, concentration of 50% inhibition) was graphically determined.

[2] = tested on: PAF-induced platelet aggregation; experiment: Inhibitory effect on platelet aggregation in rabbits (ex vivo test); details: Oryctolagus cuniculus, po, rabbit, 1 mg/kg orally, 24 hours, read-out: percentage of inhibition of platelet aggregation at 24 hours after oral administration
Method: Test compound (1 mg/kg) was orally administered to rabbit instead of adding it to PRP as in vitro test of Experiment 1, and then the citrated blood samples (9 volumes of blood+1 volume of 3.8% sodium citrate) were collected with the passage of time. Then, the blood samples were employed to determine the inhibitory effect on platelet aggregation according to Experiment 1. The percentage of inhibition at 24 hours after the oral administration of the compound of Example 2 was 100%.

PAF-induced lethal shock = experiment: Effect on PAF-induced lethal shock in mice; type: in vivo; details: Mus musculus; male ICR mice, oral 1 hour before 80 μg/kg PAF i.v., survival over 24 hours; read-out: ED50 (p.o.), PAF-induced lethal shock
Method: The experiment was carried out according to the method of Young et al. described in Prostaglandins, Vol. 30, p. 545 (1985). Groups of 9 to 15 male ICR mice (Charles River) weighing 25-30 g were used. 80 μg/kg of PAF (Serdary Research Lab.) solution was intravenously administered in a lateral tail vein 1 hour after the oral administration of test compound (0.1 ml/10 g). […] The ED50 (mg/kg, p.o.) of the compound of Example 2 was 0.01 mg/kg.

| Compound | IC50 [1] [µg/mL] | further results |
| --- | --- | --- |
| Cc1nnc2n1-c1sc(CCC(=O)N3CCOCC3)cc1C(c1ccccc1Cl)=NC2 [4-(2-chlorophenyl)-9-methyl-6H-thieno-[3,2-f][1,2,4]triazolo[4,3-a][1,4]diazepine-2-propionic acid morpholide] | – | antagonistic activity on PAF (PAF): exhibit antagonistic activity on PAF |
| CCc1cc2c(s1)-n1c(C)nnc1CN=C2c1ccccc1Cl [Etizolam, 6-(o-chlorophenyl)-8-ethyl-1-methyl-4H-s-triazolo[3,4-c]thieno[2,3-e][1,4]diazepine] | – | antagonistic activity on PAF (PAF): exhibits antagonistic activity on PAF |
| Cc1nnc2n1-c1sc(CCc3ccc(C(O)C(C)C)cc3)cc1C(c1ccccc1Cl)=NC2C (stereo not drawn) [Example 2, 4-(2-chlorophenyl)-2-[2-(4-(1-hydroxy-2-methylpropyl)phenyl)ethyl]-6,9-dimethyl-6H-thieno-[3,2-f][1,2,4]triazolo[4,3-a][1,4]diazepine] | 0.01 to 0.03 (≈ 0.0198 to 0.0594 µM) | inhibition at 1 mg/kg [2]: 100%; ED50 (PAF-induced lethal shock): 0.01 mg/kg |
| Cc1nnc2n1-c1sc(CCc3ccc(CC(C)(C)O)cc3)cc1C(c1ccccc1Cl)=NC2C (stereo not drawn) [Example 3, 4-(2-chlorophenyl)-2-[2-(4-(2-hydroxy-2-methylpropyl)phenyl)ethyl]-6,9-dimethyl-6H-thieno[3,2-f][1,2,4]triazolo[4,3-a][1,4]diazepine] | 0.01 to 0.03 (≈ 0.0198 to 0.0594 µM) | – |
| Cc1nnc2n1-c1sc(CCc3ccc(CC(C)CO)cc3)cc1C(c1ccccc1Cl)=NC2C (stereo not drawn) [Example 4, 4-(2-chlorophenyl)-2-[2-(4-(3-hydroxy-2-methylpropyl)phenyl)ethyl]-6,9-dimethyl-6H-thieno[3,2-f][1,2,4]triazolo[4,3-a][1,4]diazepine] | 0.03 to 0.1 (≈ 0.0594 to 0.198 µM) | – |
| Cc1nnc2n1-c1sc(CCc3ccc(C(=O)C(C)(C)O)cc3)cc1C(c1ccccc1Cl)=NC2C (stereo not drawn) [Example 5, 4-(2-chlorophenyl)-2-[2-(4-(2-hydroxy-2-methylpropionyl)phenyl)ethyl]-6,9-dimethyl-6H-thieno[3,2-f][1,2,4]triazolo[4,3-a][1,4]diazepine] | 0.01 to 0.03 (≈ 0.0193 to 0.0578 µM) | – |
| Cc1nnc2n1-c1sc(CCc3ccc(C(O)C(C)(C)O)cc3)cc1C(c1ccccc1Cl)=NC2C (stereo not drawn) [Example 6, 4-(2-chlorophenyl)-2-[2-(4-(1,2-dihydroxy-2-methylpropyl)phenyl)ethyl]-6,9-dimethyl-6H-thieno[3,2-f][1,2,4]triazolo[4,3-a][1,4]diazepine] | 0.03 to 0.1 (≈ 0.0576 to 0.192 µM) | – |
